Test system: Serratia plymuthica CCGG2742
Assay: Susceptibility of Serratia plymuthica CCGG2742 to various antibiotics
Format: cell-based
Set-up: key: sensibility (S); resistance (R)

Row | Compound | Susceptibility of Serratia plymuthica CCGG2742 to antibiotic (antibiotic 30 μg) | other results
1 | NCC[C@H](O)C(=O)N[C@@H]1C[C@H](N)[C@@H](O[C@H]2O[C@H](CN)[C@@H](O)[C@H](O)[C@H]2O)[C@H](O)[C@H]1O[C@H]1O[C@H](CO)[C@@H](O)[C@H](N)[C@H]1O [Amikacine] | S | –
2 | CC1(C)S[C@@H]2[C@H](NC(=O)[C@H](N)c3ccc(O)cc3)C(=O)N2[C@H]1C(=O)O [Amoxicillin] | – | Susceptibility of Serratia plymuthica CCGG2742 to antibiotic (antibiotic 25 μg): R
3 | CC1(C)S[C@@H]2[C@H](NC(=O)[C@H](N)c3ccccc3)C(=O)N2[C@H]1C(=O)O [Ampicillin] | – | Susceptibility of Serratia plymuthica CCGG2742 to antibiotic (antibiotic 10 μg): R
4 | C[C@H]1[C@H](NC(=O)/C(=N\OC(C)(C)C(=O)O)c2csc(N)n2)C(=O)N1S(=O)(=O)O [Aztreonam] | S | –
5 | CC1(C)S[C@@H]2[C@H](NC(=O)C(C(=O)O)c3ccccc3)C(=O)N2[C@H]1C(=O)O (some centres unmarked) [Carbenicillin] | – | Susceptibility of Serratia plymuthica CCGG2742 to antibiotic (antibiotic 100 μg): S
6 | CC1=C(C(=O)O)N2C(=O)[C@@H](NC(=O)[C@H](N)c3ccc(O)cc3)[C@H]2SC1 [Cefadroxil] | R | –
7 | CC(=O)OCC1=C(C(=O)O)N2C(=O)[C@@H](NC(=O)Cc3cccs3)[C@H]2SC1 [Cefalotin] | R | –
8 | Cc1nnc(SCC2=C(C(=O)O)N3C(=O)[C@@H](NC(=O)Cn4cnnn4)[C@H]3SC2)s1 [Cefazolin] | R | –
9 | CCN1CCN(C(=O)N[C@@H](C(=O)N[C@@H]2C(=O)N3C(C(=O)O)=C(CSc4nnnn4C)CS[C@H]23)c2ccc(O)cc2)C(=O)C1=O [Cefoperazone] | – | Susceptibility of Serratia plymuthica CCGG2742 to antibiotic (antibiotic 75 μg): S
10 | CO/N=C(\C(=O)N[C@@H]1C(=O)N2C(C(=O)O)=C(COC(C)=O)CS[C@H]12)c1csc(N)n1 [Cefotaxime] | S | –
11 | CC(C)(O/N=C(\C(=O)N[C@@H]1C(=O)N2C(C(=O)[O-])=C(C[n+]3ccccc3)CS[C@H]12)c1csc(N)n1)C(=O)O [Ceftazidime] | S | –
12 | CO/N=C(\C(=O)N[C@@H]1C(=O)N2C(C(=O)O)=C(CSc3nc(=O)c(=O)[nH]n3C)CS[C@H]12)c1csc(N)n1 [Ceftriaxone] | S | –
13 | CO/N=C(\C(=O)N[C@@H]1C(=O)N2C(C(=O)O)=C(COC(N)=O)CS[C@H]12)c1ccco1 [Cefuroxime] | R | –
14 | O=C(N[C@H](CO)[C@H](O)c1ccc([N+](=O)[O-])cc1)C(Cl)Cl [Chloramphenicol] | S | –
15 | CCC[C@@H]1C[C@@H](C(=O)N[C@@H]([C@H]2O[C@H](SC)[C@H](O)[C@@H](O)[C@H]2O)[C@H](C)Cl)N(C)C1 [Clindamycin] | – | Susceptibility of Serratia plymuthica CCGG2742 to antibiotic (antibiotic 2 μg): R
16 | CC[C@H]1OC(=O)[C@H](C)[C@@H](O[C@H]2C[C@@](C)(OC)[C@@H](O)[C@H](C)O2)[C@H](C)[C@@H](O[C@@H]2O[C@H](C)C[C@H](N(C)C)[C@H]2O)[C@](C)(O)C[C@@H](C)C(=O)[C@H](C)[C@@H](O)[C@]1(C)O [Erythromycin] | – | Susceptibility of Serratia plymuthica CCGG2742 to antibiotic (antibiotic 15 μg): R
17 | O=C1CN(/N=C/c2ccc([N+](=O)[O-])o2)C(=O)N1 [Nitrofurantoin] | – | Susceptibility of Serratia plymuthica CCGG2742 to antibiotic (antibiotic 300 μg): R
18 | CO[C@@H]1[C@@H](OC(N)=O)[C@@H](O)[C@H](Oc2ccc3c(O)c(NC(=O)c4ccc(O)c(CC=C(C)C)c4)c(=O)oc3c2C)OC1(C)C [Novobiocin] | – | Susceptibility of Serratia plymuthica CCGG2742 to antibiotic (antibiotic 5 μg): R
19 | Cc1onc(-c2ccccc2)c1C(=O)N[C@@H]1C(=O)N2[C@@H]1SC(C)(C)[C@@H]2C(=O)O [Oxacillin] | – | Susceptibility of Serratia plymuthica CCGG2742 to antibiotic (antibiotic 1 μg): R
20 | CN(C)[C@@H]1C(O)=C(C(N)=O)C(=O)[C@@]2(O)C(O)=C3C(=O)c4c(O)cccc4[C@@](C)(O)[C@H]3C[C@@H]12 [Tetracycline] | R | –
21 | CN[C@H](CC(C)C)C(=O)N[C@H]1C(=O)N[C@@H](CC(N)=O)C(=O)N[C@H]2C(=O)N[C@H]3C(=O)N[C@H](C(=O)N[C@H](C(=O)O)c4cc(O)cc(O)c4-c4cc3ccc4O)[C@H](O)c3ccc(c(Cl)c3)Oc3cc2cc(c3O[C@@H]2O[C@H](CO)[C@@H](O)[C@H](O)[C@H]2O[C@H]2C[C@](C)(N)[C@H](O)[C@H](C)O2)Oc2ccc(cc2Cl)[C@H]1O [Vancomycin] | R | –
22 | Gentamicin | – | Susceptibility of Serratia plymuthica CCGG2742 to antibiotic (antibiotic 10 μg): S
23 | Penicillin | – | Susceptibility of Serratia plymuthica CCGG2742 to antibiotic (antibiotic 10 U): R

— US8372391B2, “Biofungicidal composition for controlling phytopathogenic fungi” (priority 2009, dated 2013)
